Test results as given in PubChem BioAssay AID330 (DTP/NCI, 2004).
Where “and” joins values, the source holds several entries; their conditions need not be identical. Identical values can stand only once. Toxic doses and inconclusive results are not listed. Rule for the calls: active = survival T/C of 150% or more; inactive = T/C below 125% in these data. Square brackets hold non-standard residues; d marks the D form. Peptide text beside a SMILES is read from it. * marks the point of attachment. ξ: configuration not given here. Cbz = O=C(OCc1ccccc1)*; ξT = CC(O)C(N)C(=O)O

Tested on: P388 leukemia ip, CD2F1 mice, survival T/C
Test: NCI In Vivo Anticancer Drug Screen. Data for tumor model P388 Leukemia (intraperitoneal) in CD2F1 (CDF1) mice
Settings: endpoint: median survival time, higher = longer survival
Method in brief: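 Mice carrying the transplanted tumor received test compound or vehicle. Survival was recorded in each group, and the value is the treated-group measurement divided by that of the vehicle-treated control group.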

[1] = dose: 60.0 mg/kg/injection, schedule: Q01DX005 (ip), vehicle: saline with Tween-80
[2] = dose: 120.0 mg/kg/injection, schedule: Q01DX005 (ip), vehicle: saline with Tween-80
[3] = dose: 240.0 mg/kg/injection, schedule: Q01DX005 (ip), vehicle: saline with Tween-80
[4] = dose: 50.0 mg/kg/injection, schedule: Q01DX009 (ip), vehicle: saline with Tween-80
[5] = dose: 100.0 mg/kg/injection, schedule: Q01DX009 (ip), vehicle: saline with Tween-80
[6] = dose: 100.0 mg/kg/injection, schedule: Q04DX003 (ip), vehicle: saline with Tween-80
[7] = dose: 200.0 mg/kg/injection, schedule: Q04DX003 (ip), vehicle: saline with Tween-80
[8] = dose: 25.0 mg/kg/injection, schedule: Q01DX009 (ip), vehicle: saline with Tween-80
[9] = dose: 50.0 mg/kg/injection, schedule: Q01DX005 (ip), vehicle: Klucel (hydroxypropylcellulose) (HPC)
[10] = dose: 100.0 mg/kg/injection, schedule: Q01DX005 (ip), vehicle: Klucel (hydroxypropylcellulose) (HPC)
[11] = dose: 200.0 mg/kg/injection, schedule: Q01DX005 (ip), vehicle: Klucel (hydroxypropylcellulose) (HPC)

Measured: T/C

c1cc(-c2cc3ccc(C4=NCCN4)cc3s2)ccc1C1=NCCN1
inactive: dose: 25.0 mg/kg/injection, schedule: Q04DX003 (ip), vehicle: saline 115 % of control | dose: 50.0 mg/kg/injection, schedule: Q04DX003 (ip), vehicle: saline 115 % of control

O=C(O)c1ccccc1N/N=C\c1cc(/C=N/Nc2ccccc2C(=O)O)nc2[nH]c(=O)ccc12
inactive: dose: 100.0 mg/kg/injection, schedule: Q04DX002 (ip), vehicle: Klucel (hydroxypropylcellulose) (HPC) 102 % of control | dose: 200.0 mg/kg/injection, schedule: Q04DX002 (ip), vehicle: Klucel (hydroxypropylcellulose) (HPC) 107 % of control | dose: 400.0 mg/kg/injection, schedule: Q04DX002 (ip), vehicle: Klucel (hydroxypropylcellulose) (HPC) 105 % of control

CC(=O)O.CC(=O)O.CC(=O)O.CC(=O)O.[Cu].[Cu]
inactive: dose: 6.25 mg/kg/injection, schedule: Q04DX002 (ip), vehicle: Klucel (hydroxypropylcellulose) (HPC) 91 % of control | dose: 12.5 mg/kg/injection, schedule: Q04DX002 (ip), vehicle: Klucel (hydroxypropylcellulose) (HPC) 100 % of control

OCC(O)C(O)C(O)/C=N\Nc1ccccc1 (stereo unspecified)
inactive: dose: 50.0 mg/kg/injection, schedule: Q01DX009 (ip), vehicle: saline 100 % of control | dose: 100.0 mg/kg/injection, schedule: Q01DX009 (ip), vehicle: saline 114 % of control

COc1ccc(C(=NCCc2ccccc2)c2ccccc2)c(O)c1
inactive: dose: 100.0 mg/kg/injection, schedule: Q04DX002 (ip), vehicle: saline with Tween-80 100 % of control | dose: 200.0 mg/kg/injection, schedule: Q04DX002 (ip), vehicle: saline with Tween-80 98 % of control | dose: 400.0 mg/kg/injection, schedule: Q04DX002 (ip), vehicle: saline with Tween-80 100 % of control

CCOC1OCCCC1(C)C (stereo unspecified)
inactive: [1] 100 % of control | [2] 105 % of control | [3] 112 % of control

O=c1[nH]cnc2[nH]ncc12
inactive: dose: 20.0 mg/kg/injection, schedule: Q01DX005 (ip), vehicle: saline with Tween-80 104 % of control | dose: 40.0 mg/kg/injection, schedule: Q01DX005 (ip), vehicle: saline with Tween-80 110 % of control | dose: 50.0 mg/kg/injection, schedule: Q01DX009 (ip), vehicle: saline sonified 95 % of control | [4] 95 % of control | dose: 50.0 mg/kg/injection, schedule: Q04DX003 (ip), vehicle: saline sonified 109 % of control | dose: 50.0 mg/kg/injection, schedule: Q04DX003 (ip), vehicle: saline with Tween-80 90 % of control | dose: 80.0 mg/kg/injection, schedule: Q01DX005 (ip), vehicle: saline with Tween-80 106 % of control | dose: 100.0 mg/kg/injection, schedule: Q01DX009 (ip), vehicle: saline sonified 100 % of control | [5] 95 % of control | dose: 100.0 mg/kg/injection, schedule: Q04DX003 (ip), vehicle: saline sonified 95 % of control | [6] 95 % of control | dose: 160.0 mg/kg/injection, schedule: Q01DX005 (ip), vehicle: saline with Tween-80 104 % of control | dose: 200.0 mg/kg/injection, schedule: Q01DX009 (ip), vehicle: saline sonified 100 % of control | dose: 200.0 mg/kg/injection, schedule: Q04DX003 (ip), vehicle: saline sonified 113 % of control | [7] 104 % of control

COc1cccc(C(Cc2ccccc2)NCc2ccccc2)c1O (stereo unspecified)
inactive: dose: 50.0 mg/kg/injection, schedule: Q01DX005 (ip), vehicle: saline with Tween-80 105 % of control | dose: 100.0 mg/kg/injection, schedule: Q01DX005 (ip), vehicle: saline with Tween-80 103 % of control | dose: 200.0 mg/kg/injection, schedule: Q01DX005 (ip), vehicle: saline with Tween-80 101 % of control

CSNC(C)=O
inactive: [8] 102 % of control | [4] 109 % of control | [5] 111 % of control

Cc1nn(C(=O)c2ccncc2)c(C)c1N=Nc1cccc([N+](=O)[O-])c1
inactive: dose: 100.0 mg/kg/injection, schedule: Q04DX003 (ip), vehicle: saline 89 % of control | dose: 200.0 mg/kg/injection, schedule: Q04DX003 (ip), vehicle: saline 93 % of control

O=C1OC(C(O)C(O)CO)C(O)C1O (stereo unspecified)
inactive: dose: 50.0 mg/kg/injection, schedule: Q01DX005 (ip), vehicle: saline 108 % of control | dose: 100.0 mg/kg/injection, schedule: Q01DX005 (ip), vehicle: saline 100 % of control | dose: 200.0 mg/kg/injection, schedule: Q01DX005 (ip), vehicle: saline 95 % of control

CC(C)(C)N=C(Nc1ccccc1Cl)C(Cl)CSc1ccccc1 (stereo unspecified)
inactive: [9] 100 % of control and 102 % of control | [10] 100 % of control and 98 % of control | [11] 105 % of control

COC1/C=C/OC2(C)Oc3c(C)c(O)c4c(c3C2=O)C(=O)C=C(NC(=O)/C(C)=C\C=C\C(C)C2OC(C)(C)OC(C(C)C(=O)C1C)C2C)C4=O (stereo unspecified)
inactive: dose: 100.0 mg/kg/injection, schedule: Q01DX001 (ip), vehicle: saline with Tween-80 103 % of control | dose: 200.0 mg/kg/injection, schedule: Q01DX001 (ip), vehicle: saline with Tween-80 95 % of control | dose: 400.0 mg/kg/injection, schedule: Q01DX001 (ip), vehicle: saline with Tween-80 100 % of control

COC(=O)CCC1=C(C)c2cc3[nH]c(cc4[nH]c(cc5nc(cc1n2)C(CCC(=O)OC)=C5C)c(C1CC1C(=O)OC)c4C)c(C1CC1C(=O)OC)c3C (stereo unspecified)
inactive: [9] 104 % of control | [10] 104 % of control | [11] 109 % of control

O=C(O)C(Cc1ccc([N+](=O)[O-])cc1)NCc1ccco1 (stereo unspecified)
inactive: [4] 119 % of control | [5] 119 % of control

Cc1[nH]cc2c1C(c1ccccc1F)=NCC(=O)N2
inactive: [6] 101 % of control | [7] 100 % of control | dose: 400.0 mg/kg/injection, schedule: Q04DX003 (ip), vehicle: saline with Tween-80 101 % of control

Cc1onc(-c2ccccc2)c1C(=O)OCCOc1ccc(C(F)(F)F)cc1[N+](=O)[O-]
inactive: [1] 99 % of control | [2] 90 % of control | [3] 90 % of control

Nc1ccncc1N
inactive: dose: 2.5 mg/kg/injection, schedule: Q01DX009 (ip), vehicle: saline 94 % of control | dose: 3.12 mg/kg/injection, schedule: Q01DX009 (ip), vehicle: saline 101 % of control | dose: 5.0 mg/kg/injection, schedule: Q01DX009 (ip), vehicle: saline 106 % of control | dose: 6.25 mg/kg/injection, schedule: Q01DX009 (ip), vehicle: saline 97 % of control | dose: 10.0 mg/kg/injection, schedule: Q01DX009 (ip), vehicle: saline 100 % of control | dose: 12.5 mg/kg/injection, schedule: Q01DX009 (ip), vehicle: saline 103 % of control | dose: 20.0 mg/kg/injection, schedule: Q01DX009 (ip), vehicle: saline 93 % of control

CC(O)C(NC(=O)OCc1ccccc1)C(=O)NCC(N)=O (stereo unspecified) (Cbz-[ξT]-Gly-NH2)
inactive: [9] 101 % of control | [10] 115 % of control | [11] 101 % of control

O=c1[nH]cnc2nn(C3OC(CO)C(O)C3O)cc12 (stereo unspecified)
inactive: dose: 0.39 mg/kg/injection, schedule: Q01DX009 (ip), vehicle: saline with Tween-80 104 % of control and 117 % of control | dose: 0.78 mg/kg/injection, schedule: Q01DX009 (ip), vehicle: saline with Tween-80 104 % of control and 116 % of control | dose: 1.56 mg/kg/injection, schedule: Q01DX009 (ip), vehicle: saline with Tween-80 107 % of control | dose: 3.12 mg/kg/injection, schedule: Q01DX009 (ip), vehicle: saline with Tween-80 93 % of control | dose: 6.25 mg/kg/injection, schedule: Q01DX009 (ip), vehicle: saline with Tween-80 93 % of control | dose: 12.5 mg/kg/injection, schedule: Q01DX009 (ip), vehicle: saline with Tween-80 101 % of control | [8] 96 % of control | [4] 104 % of control
